{"source": "patent US20120016009A1", "about": "“Optimized Methods For Delivery Of DSRNA Targeting The PCSK9 Gene” (priority 2008, published 2012)", "key": {"PCSK9 mRNA [1]": {"system": "PCSK9 mRNA", "test": "PCSK9 siRNA screening in HepG2 cells (lipofectamine 2000 transfection, PCSK9 mRNA by Quantigene, normalized to GAP-DH)", "assay_type": "cell-based, human", "method_in_brief": "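PCSK9 silencing was assessed in HepG2 cells by lipofectamine 2000 siRNA transfection in 96-well plates. Twenty-four hours later, lysates were analyzed with the Quantigene Explore Kit, with PCSK9 signal normalized to GAP-DH. Eight datapoints were collected per siRNA, and remaining transcript was expressed as a percentage of cells treated with an unrelated control siRNA duplex.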"}, "[2]": {"test": "IFN-alpha activation in mice, siRNA formulated into liposomes", "assay_type": "in vivo, mouse"}, "PCSK9 mRNA [3]": {"system": "PCSK9 mRNA", "test": "PCSK9 silencing in primary cynomolgus monkey hepatocytes (dilution series from 30 nM, PCSK9/GAPDH mRNA)", "assay_type": "cell-based", "method": "Primary cynomolgus monkey hepatocytes (cryopreserved) were obtained from In vitro Technologies, Inc. (Baltimore, Md., USA, cat No M00305) and cultured in InVitroGRO CP Medium (cat No Z99029) at 37° C. in an atmosphere with 5% CO2 in a humidified incubator.\nFor transfection with siRNA, primary cynomolgus monkey cells were seeded on Collagen coated plates (Fisher Scientific, cat. No. 08-774-5) at a density of 3.5×10^4 cells/well in 96-well plates and transfected directly. Transfection of siRNA (eight 2-fold dilution series starting from 30 nM) in duplicates was carried out with lipofectamine 2000 (Invitrogen GmbH, Karlsruhe, Germany, cat. No. 11668-019) as described by the manufacturer.\n16 hours after transfection medium was changed to fresh InVitroGRO CP Medium with Torpedo Antibiotic Mix (In vitro Technologies, Inc, cat. No Z99000) added.\n24 hours after medium change primary cynomolgus monkey cells were lysed and PCSK9 mRNA levels were quantified with the Quantigene Explore Kit (Genosprectra, Dumbarton Circle Fremont, USA, cat. No. QG-000-02) according to the protocol. PCSK9 mRNA levels were normalized to GAPDH mRNA. Normalized PCSK9/GAPDH ratios were then compared to PCSK9/GAPDH ratio of lipofectamine 2000 only control."}, "[4]": {"system": "primary human blood monocytes (hPBMC)", "test": "IFN-alpha induction in primary human blood monocytes (hPBMC)", "assay_type": "cell-based", "details": "for IFN-α Induction: first word of the cell IFN-α/TNF-α Induction (Yes/No); for IFN-alpha induction: human primary blood monocytes", "method": "(§1) siRNAs were tested for activation of the immune system in primary human blood monocytes (hPBMC). […] However, chemically modified versions of this sequence (AD-1a2, AD-1a3, AD-1a5, and AD-1a4) as well as AD-2a1 were negative for both IFN-alpha and TNF-alpha induction in these same assays (see Table 5, and FIGS. 13A and 13B). Thus chemical modifications are capable of dampening both IFN-alpha and TNF-alpha responses to siRNA molecules."}, "[5]": {"system": "primary human blood monocytes (hPBMC)", "test": "TNF-alpha induction in primary human blood monocytes (hPBMC)", "assay_type": "cell-based", "details": "for TNF-alpha induction: human primary blood monocytes; for TNF-α Induction: second word of the cell IFN-α/TNF-α Induction (Yes/No)", "method": "as §1"}, "[6]": {"test": "siRNA stability in human serum at 37° C., HPLC analysis", "assay_type": "in vitro ADME", "method": "(§2) Phosphorothioate modifications at the 3′ ends of both sense and antisense strands of a dsRNA can protect against exonucleases. 2′OMe and 2′F modifications in both the sense and antisense strands of a dsRNA can protect against endonucleases. AD-1a2 (see Table 5b) contains 2′OMe modifications on both the sense and antisense strands. Experiments were performed to determine if the inherent stability (as measured by siRNA stability in human serum) or the degree or type of chemical modification (2′OMe versus 2′F or a mixture) was related to either the observed rat efficacy or the duration of silencing effects. Stability of siRNAs with the same AD-1a2 core sequence, but containing different chemical modifications were created and tested for activity in vitro in primary Cyno monkey hepatocytes. A series of these molecules that maintained similar activity as measured by in vitro IC50 values for PCSK9 silencing (Table 5b), were then tested for their stability against exo and endonuclease cleavage in human serum. Each duplex was incubated in human serum at 37° C. (a time course), and subjected to HPLC analysis. […] Sequences AD-1a3, AD-1a5, and AD-1a4, which were more heavily modified (see chemical modifications in Table 5) all had T ½'s greater than 24 hours. […] Blood was collected from animals at various days post-dose, and total cholesterol concentrations were measured. […]"}, "PCSK9 mRNA [7]": {"system": "PCSK9 mRNA", "test": "In vitro screening of modified dsRNAs targeted to PCSK9 (Table 2b; cell type not given)", "assay_type": "cell-based", "details": "30 nM siRNA", "method_in_brief": "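Activity is reported as percent PCSK9 transcript remaining versus an unrelated control duplex, from eight datapoints per siRNA. Knockdown was read by Quantigene branched-DNA assay with GAPDH normalization 24 h after lipofectamine 2000 transfection of 30 nM siRNA.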"}, "PCSK9": {"system": "PCSK9", "test": "Total serum cholesterol in rats after LNP01 formulated PCSK9 siRNA (duration of action)", "assay_type": "in vivo, rat", "details": "versus PBS or control siRNA", "method": "Rats were treated via tail vein injection with 5 mg/kg of LNP01-10792 (Formulated ALDP-10792). Blood was drawn at the indicated time points (see Table 3) and the amount of total cholesterol compared to PBS treated animals was measured by standard means. Total cholesterol levels decreased at day two ˜60% and returned to baseline by day 28.\nTo test if acute silencing of the PCSK9 transcript by a PCSK9 siRNA (and subsequent PCSK9 protein down-regulation), would result in acutely lower total cholesterol levels, siRNA molecule AD-1a2 (AD-10792) was formulated in an LNP01 lipidoid formulation. Liposomal formulated siRNA duplex AD-1a2 (LNP01-1a2) was injected via tail vein in low volumes (˜0.2 ml for mouse and ˜1.0 ml for rats) at different doses into C57/BL6 mice or Sprague Dawley rats.\nDown-modulation of total cholesterol in rats has been historically difficult as cholesterol levels remain unchanged even at high doses of HMG-CoA reductase inhibitors. […] Rats were dosed with a single injection of LNP01-a2 via tail vein at 1, 2.5 and 5 mg/kg. Liver tissue and blood were harvested 72 hours post-injection. […] The mRNA silencing was associate with an acute ˜50-60% decrease of serum total cholesterol (FIGS. 10A and 10B) lasting 10 days, with a gradual return to pre-dose levels by ˜3 weeks (FIG. 10B).\nas §2"}, "[8]": {"details": "PCSK9 silencing in primary cynomolgus monkey hepatocytes, approximate IC50, read-out: Primary Cynomolgus Monkey Hepatocytes ~IC50"}, "[9]": {"details": "primary cynomolgus monkey hepatocytes, read-out: IC50 in Cynomolgous monkey Hepatocyte [nM]s"}}, "note": "In the oligonucleotide strings, read from the 5' end, every base follows the letter of its sugar. An asterisk marks phosphorothioate; unmarked linkages are phosphodiester. Other units and linkages are bracketed, terminal groups are in braces. A string of capitals states the bases alone. d = 2'-deoxy (DNA); m = 2'-O-methyl; r = 2'-OH (RNA)"}
{"substance": "AD-9680: dsRNA targeting the PCSK9 gene at 3530-3548; sense SEQ ID NO:1227, antisense SEQ ID NO:1228 (sense mUmUmCmUrArGrAmCmCmUrGmUmUmUmUrGmCmUmUdT*dT; antisense rArArGmCrArArArAmCrArGrGrUrCmUrArGrArAdT*dT)", "values": [{"measurement": "IC50", "setting": "PCSK9 mRNA [1]", "value": 0.1, "unit": "nM"}, {"measurement": "Mean percent remaining mRNA transcript at siRNA concentration/in cell type 3 nM/HepG2", "setting": "PCSK9 mRNA [1]; 3 nM siRNA", "value": 22, "unit": "%"}, {"measurement": "Mean percent remaining mRNA transcript at siRNA concentration/in cell type 30 nM/HepG2", "setting": "PCSK9 mRNA [1]; 30 nM siRNA", "value": 12, "unit": "%"}, {"measurement": "IFN-alpha activation in mice", "setting": "[2]", "value": "neither AD-1a2, nor AD-2a1 activated IFN-alpha"}, {"measurement": "IC50", "setting": "PCSK9 mRNA [3]; [8]", "value": "0.07 to 0.2", "unit": "nM"}, {"measurement": "IC50", "setting": "PCSK9 mRNA [3]; [9]", "value": 0.1, "unit": "nM"}, {"measurement": "activity in vitro in primary monkey hepatocytes", "setting": "PCSK9 mRNA [3]", "value": "highly active"}, {"measurement": "IFN-α Induction", "setting": "[4]", "value": "No/No"}, {"measurement": "IFN-alpha induction", "setting": "[4]", "value": "negative"}, {"measurement": "TNF-alpha induction", "setting": "[5]", "value": "negative"}, {"measurement": "TNF-α Induction", "setting": "[5]", "value": "No/No"}]}
{"substance": "AD-10792: 2′OMe modified dsRNA targeting PCSK9 at 1091-1109, SEQ ID NO:1305/1306 (chain 1 rGmCmCmUrGrGrArGmUmUmUrAmUmUmCrGrGrArAdT*dT; chain 2 rUrUrCrCrGrArAmUrArArArCrUrCmCrArGrGrCdT*dT)", "values": [{"measurement": "IC50", "setting": "PCSK9 mRNA [1]", "value": 0.1, "unit": "nM"}, {"measurement": "IFN-alpha activation in mice", "setting": "[2]", "value": "neither AD-1a2, nor AD-2a1 activated IFN-alpha"}, {"measurement": "IC50", "setting": "PCSK9 mRNA [3]; [8]", "value": "0.07 to 0.2", "unit": "nM"}, {"measurement": "IC50", "setting": "PCSK9 mRNA [3]; [9]", "value": 0.1, "unit": "nM"}, {"measurement": "activity in vitro in primary monkey hepatocytes", "setting": "PCSK9 mRNA [3]", "value": "active in vitro"}, {"measurement": "T ½ in pooled human serum", "setting": "[6]", "value": "~7", "unit": "h"}, {"measurement": "IFN-α Induction", "setting": "[4]", "value": "No/No"}, {"measurement": "IFN-alpha induction", "setting": "[4]; listed as AD-1a2", "value": "negative"}, {"measurement": "Remaining mRNA in % of controls at siRNA conc. of 30 nM", "setting": "PCSK9 mRNA [7]", "value": 15, "unit": "%"}, {"measurement": "TNF-alpha induction", "setting": "[5]; listed as AD-1a2", "value": "negative"}, {"measurement": "TNF-α Induction", "setting": "[5]", "value": "No/No"}, {"measurement": "decrease of total cholesterol day 2 post-dose", "setting": "PCSK9", "value": "~60", "unit": "%"}]}
